Results published in US20210379035A1, “Methods Of Treating Fabry Patients Having Renal Impairment” (Amicus Therapeutics, Inc., priority 2017, published 2021).

Tested on: Fabry patients
Assay: Long-term analysis of 12 patients that completed multiple studies: eGFR
Type: in vivo, human
Conditions: 11 patients who received migalastat HCl 150 mg QOD for ≥17 months (mean exposure, 4-5 years)
From the text: In addition to the studies described above, other patients also received migalastat therapy in other studies such as dose-finding studies and/or long-term extension studies. […] 12 patients that completed multiple studies were further analyzed. Linear regression was used to calculate the annualized rate of change in […] from baseline.

Q: How did the “annualized mean change in eGFRCKD-EPI” value turn out when `Cl.OC[C@H]1NC[C@H](O)[C@@H](O)[C@H]1O` [migalastat HCl, migalastat hydrochloride] was run?
A: Its value is 0.24 mL/min/1.72 m^2.
